From US8865894B2, “Oxazolidin-2-one compounds and uses thereof” (Novartis AG, priority 2012, dated 2014)

target: T1, human PI3Kdelta p110 catalytic subunit (Rat-1 pBABEpuro Myr-HA-hp110 delta) (Homo sapiens, UniProt O00329); test: Cellular assay PI3Kdelta (p-Akt(S473) SureFire, Rat-1_PI3Kdelta cells); format: cell-based; conditions: 1 h compound treatment, read-out: Rat1-PI3Kd/ IC50
T1 construct: Myr (myristoylation signal) (N); HA (N); expressed in transfected cells; host or cells: Rat-1
Text: AlphaScreen (Amplified Luminescent Proximity Homogeneous Assay, ALPHA, Perkin Elmer) is a non-radioactive bead-based proximity assay technology to study biomolecular interactions in a homogenous microtiter plate format. The brand name SureFire denotes AlphaScreen assays that are adapted to quantify the phosphorylation of endogenous cellular proteins in cell lysates, by using matched antibody pairs, which consist of an anti-phospho-kinase and an anti-kinase antibody. The assay allows characterization of kinase signaling in cells as well as measurement of kinase inhibitor effects. The AlphaScreen technology provides several advantages over standard assay techniques such as ELISA, as it avoids time-consuming washing procedures and reduces plate handling. Furthermore, it is miniaturizable at least to a 384-well format and provides sensitivity down to the femtomolar range, dependent on the affinity of the antibodies included in the individual AlphaScreen SureFire assay kit. High sensitivity is reached by an intrinsic amplification mechanism, which involves production of singlet oxygen molecules. SureFire assay kits are commercially available for specific targets and include pairs of validated antibodies (PerkinElmer). This report describes common procedures applied for AlphaScreen SureFire assays and respective semi-automated steps for routine kinase inhibitor profiling in cell-based assays.
The Rat-1 cell lines stably overexpressing activated PI3K class I isoforms Rat-1 pBABEpuro Myr-HA-hp110 delta (Rat-1_PI3Kdelta) and Rat-1 pBABEpuro Myr-HA-hp110alpha (Rat-1_PI3Kalpha) and Rat-1 pBABEpuro Myr-HA-hp110 beta (Rat-1_PI3beta) were prepared as described (Maira S M, Stauffer F, Brueggen J, Furet P, Schnell C, Fritsch C, Brachmann S, Chène P, de Pover A, Schoemaker K, Fabbro D, Gabriel D, Simonen M, Murphy L, Finan P, Sellers W, García-Echeverría C (2008), Mol Cancer Ther. 7:1851-63 and Maira S M, Pecchi S, Brueggen J, Huh K, Schnell C, Fritsch C, Nagel T, Wiesmann M, Brachmann S, Dorsch M, Chène P, Schoemaker K, De Pover A, Menezes D, Fabbro D, Sellers W, García-Echeverría C, Voliva C F (2011), Mol. Cancer Ther., accepted). All cell lines were cultivated in complete growth medium (DMEM high glucose, 10% (v/v) fetal bovine serum, 1% (v/v) MEM NEAA, 10 mM HEPES, 2 mM L-glutamine, puromycin (10 μg/mL for Rat-1_PI3Kdelta and Rat-1_PI3Kalpha, 4 ug/mL for Rat-1_PI3beta), 1% (v/v) Pen/Strep) to 90% confluency at 37° C./5% CO2/90% humidity in a humidified CO2 incubator and were split twice a week.
The following materials were used for p-AKT(S473) detection in Rat-1 cell lysates: Dulbecco's modified Eagle's medium (DMEM) high glucose (Gibco Invitrogen, Basel, Switzerland, Cat. No. 41965), Heat Inactivated Fetal Bovine Serum, Qualified (HI FBS; Gibco Invitrogen, Basel, Switzerland, Lot. No. 16140), MEM non essential amino acids (NEAA; Gibco Invitrogen, Basel, Switzerland, Cat. No. 11140), HEPES (Gibco Invitrogen, Basel, Switzerland, Cat. No. 15630), Penicillin/Streptomycin (Pen/Strep, 100×; Gibco Invitrogen, Basel, Switzerland, Cat. No. 15140-122), L-Glutamine (Gibco Invitrogen, Basel, Switzerland, Cat. No. 25030), Puromycin (Sigma Aldrich, Buchs, Switzerland, Cat. No. P9620), DMSO (MERCK, Dietikon, Switzerland, Cat. No. 8.02912.2500), H2O, MilliQ-H2O unless otherwise stated (MILLIPORE QGARDOOR1, Millipore, Zug, Switzerland), Bovine serum albumine (BSA; Sigma Aldrich, Buchs, Switzerland Cat. No. A8412), SureFire p-Akt 1/2 (Ser473) Assay Kit (PerkinElmer, Schwerzenbach, Switzerland, Cat. No. TGRAS50K).
The p-Akt(S473) SureFire assay measures the phosphorylation of endogenous cellular Akt 1/2 at Ser473 in cell lysates. Using Rat-1 cells stably expressing myr-HA-tagged versions of the human PI3Kdelta, PI3Kalpha, or PI3Kbeta p110 catalytic subunit isoforms, the assay was developed as a two-plate protocol in a 384-well format.

T1 sequence (O00329 whole entry): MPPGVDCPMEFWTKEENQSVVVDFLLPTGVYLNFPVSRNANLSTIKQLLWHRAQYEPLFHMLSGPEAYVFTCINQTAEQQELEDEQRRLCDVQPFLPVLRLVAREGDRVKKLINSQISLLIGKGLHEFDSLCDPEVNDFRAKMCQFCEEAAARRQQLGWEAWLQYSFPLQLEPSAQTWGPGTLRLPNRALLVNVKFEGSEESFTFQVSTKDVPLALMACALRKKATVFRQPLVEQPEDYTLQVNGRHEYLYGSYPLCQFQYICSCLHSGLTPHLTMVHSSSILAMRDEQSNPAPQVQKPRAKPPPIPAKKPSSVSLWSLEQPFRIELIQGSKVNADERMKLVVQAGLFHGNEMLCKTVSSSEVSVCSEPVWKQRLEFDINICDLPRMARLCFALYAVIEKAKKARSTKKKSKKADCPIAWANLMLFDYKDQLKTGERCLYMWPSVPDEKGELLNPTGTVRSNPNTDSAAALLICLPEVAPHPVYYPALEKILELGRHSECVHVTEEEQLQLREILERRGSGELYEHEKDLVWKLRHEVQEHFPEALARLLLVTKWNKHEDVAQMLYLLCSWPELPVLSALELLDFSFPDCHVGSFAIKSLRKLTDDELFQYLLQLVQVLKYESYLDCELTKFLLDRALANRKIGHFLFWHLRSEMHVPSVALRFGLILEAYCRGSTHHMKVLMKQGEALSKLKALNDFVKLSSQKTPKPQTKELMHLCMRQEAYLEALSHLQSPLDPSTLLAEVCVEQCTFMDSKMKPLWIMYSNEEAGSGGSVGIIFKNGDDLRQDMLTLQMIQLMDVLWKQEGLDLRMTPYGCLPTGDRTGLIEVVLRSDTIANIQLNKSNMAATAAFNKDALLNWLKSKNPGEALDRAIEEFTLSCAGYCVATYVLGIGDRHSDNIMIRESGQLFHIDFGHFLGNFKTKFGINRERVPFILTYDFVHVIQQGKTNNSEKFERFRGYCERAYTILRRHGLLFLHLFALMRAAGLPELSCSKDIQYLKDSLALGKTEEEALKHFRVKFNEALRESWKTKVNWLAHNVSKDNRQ
T1 sequence (Q63787 whole entry partner): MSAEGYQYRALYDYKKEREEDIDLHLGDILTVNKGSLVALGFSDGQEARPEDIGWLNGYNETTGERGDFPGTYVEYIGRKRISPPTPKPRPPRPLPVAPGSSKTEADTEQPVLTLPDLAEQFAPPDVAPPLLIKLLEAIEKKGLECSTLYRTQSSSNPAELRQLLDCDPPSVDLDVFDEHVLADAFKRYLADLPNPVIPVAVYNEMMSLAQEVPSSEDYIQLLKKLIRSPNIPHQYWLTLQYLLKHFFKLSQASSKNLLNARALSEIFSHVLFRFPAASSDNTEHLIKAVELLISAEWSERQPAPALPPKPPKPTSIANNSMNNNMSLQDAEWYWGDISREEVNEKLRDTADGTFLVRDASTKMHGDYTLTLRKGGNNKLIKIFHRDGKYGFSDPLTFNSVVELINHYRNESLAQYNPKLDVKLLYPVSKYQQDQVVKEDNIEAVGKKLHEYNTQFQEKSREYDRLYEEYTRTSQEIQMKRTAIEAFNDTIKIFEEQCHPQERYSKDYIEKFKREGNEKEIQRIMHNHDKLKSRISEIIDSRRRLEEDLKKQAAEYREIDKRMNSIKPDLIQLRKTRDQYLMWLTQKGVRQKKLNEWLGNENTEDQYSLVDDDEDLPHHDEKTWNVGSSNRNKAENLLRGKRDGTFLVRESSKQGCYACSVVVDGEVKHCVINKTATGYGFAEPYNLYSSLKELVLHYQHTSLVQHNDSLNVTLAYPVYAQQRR

SMILES	IC50
Nc1ncc(-c2cc(N3C[C@@H](CO)OC3=O)nc(N3CCOCC3)n2)c(C(F)(F)F)n1 [Example 14, (S)-3-(2′-Amino-2-morpholin-4-yl-4′-trifluoromethyl-[4,5′]bipyrimidinyl-6-yl)-5-hydroxymethyl-oxazolidin-2-one]	101 nM
C[C@H]1[C@@H](CCO)OC(=O)N1c1cc(-c2cnc(N)nc2C(F)(F)F)nc(N2CCOCC2)n1 [Example 23, (4S,5R)-3-(2′-Amino-2-morpholino-4′-(trifluoromethyl)-[4,5′-bipyrimidin]-6-yl)-5-(2-hydroxyethyl)-4-methyloxazolidin-2-one]	16 nM
COC[C@H]1COC(=O)N1c1cc(-c2cnc(N)nc2C(F)(F)F)nc(N2CCOCC2)n1 [Example 5, (S)-3-(2′-Amino-2-morpholin-4-yl-4′-trifluoromethyl-[4,5′]bipyrimidinyl-6-yl)-4-methoxymethyl-oxazolidin-2-one]	23 nM
C[C@H]1COCCN1c1nc(-c2cnc(N)nc2C(F)(F)F)cc(N2C(=O)OC[C@@H]2C)n1 [Example 13, (S)-3-[2′-Amino-2-((S)-3-methyl-morpholin-4-yl)-4′-trifluoromethyl-[4,5′]bipyrimidinyl-6-yl]-4-methyl-oxazolidin-2-one]	42 nM
Nc1ncc(-c2cc(N3C(=O)OC4C(O)CCC43)nc(N3CCOCC3)n2)c(C(F)(F)F)n1 (single isomer, unassigned) [Example 22A]	27 nM
C[C@H]1C(CC(C)(C)O)OC(=O)N1c1cc(-c2cnc(N)nc2C(F)(F)F)nc(N2CCOCC2)n1 (mixture of isomers) [Example 26, (4S,5R)- and (4S,5S)-3-(2′-amino-2-morpholino-4′-(trifluoromethyl)-[4,5′-bipyrimidin]-6-yl)-5-(2-hydroxy-2-methylpropyl)-4-methyloxazolidin-2-one]	11 nM
C[C@H]1OC(=O)N(c2cc(-c3cnc(N)nc3C(F)(F)F)nc(N3CCOCC3)n2)[C@H]1CO [Example 18, (4S,5R)-3-(2′-Amino-2-morpholin-4-yl-4′-trifluoromethyl-[4,5′]bipyrimidinyl-6-yl)-4-hydroxymethyl-5-methyl-oxazolidin-2-one]	28 nM
[2H]C1([2H])OC([2H])([2H])C([2H])([2H])N(c2nc(-c3cnc(N)nc3C(F)(F)F)cc(N3C(=O)O[C@H](C)[C@@H]3CO)n2)C1([2H])[2H] [Example 8]	54 nM
C[C@@H]1OC(=O)N(c2cc(-c3cnc(N)nc3C(F)(F)F)nc(N3CCOCC3)n2)[C@H]1CO [Example 6]	37 nM
C[C@H]1OC(=O)N(c2cc(-c3cnc(N)nc3C(F)(F)F)nc(N3CCOC[C@@H]3C)n2)[C@H]1CO [Example 10, (4S,5R)-3-[2′-Amino-2-((S)-3-methyl-morpholin-4-yl)-4′-trifluoromethyl-[4,5′]bipyrimidinyl-6-yl]-4-hydroxymethyl-5-methyl-oxazolidin-2-one]	52 nM
CC1(C)OC(=O)N(c2cc(-c3cnc(N)nc3C(F)(F)F)nc(N3CCOCC3)n2)[C@H]1CO [Example 2, (S)-3-(2′-Amino-2-morpholin-4-yl-4′-trifluoromethyl-[4,5′]bipyrimidinyl-6-yl)-4-hydroxymethyl-5,5-dimethyl-oxazolidin-2-one]	81 nM
C[C@H](O)CC1OC(=O)N(c2cc(-c3cnc(N)nc3C(F)(F)F)nc(N3CCOCC3)n2)[C@H]1C (single isomer, unassigned) [Example 25]	13 nM
Nc1ncc(-c2cc(N3C(=O)O[C@H]4CCCC[C@@H]43)nc(N3CCOCC3)n2)c(C(F)(F)F)n1 [Example 4, (3aS,7aS)-3-(2′-Amino-2-morpholin-4-yl-4′-trifluoromethyl-[4,5′]bipyrimidinyl-6-yl)-hexahydro-benzooxazol-2-one]	13 nM
C[C@@H](O)C[C@H]1OC(=O)N(c2cc(-c3cnc(N)nc3C(F)(F)F)nc(N3CCOCC3)n2)[C@H]1C (single isomer, unassigned) [Example 24]	7 nM
Nc1ncc(-c2cc(N3C(=O)OC4C(O)CCC43)nc(N3CCOCC3)n2)c(C(F)(F)F)n1 (single isomer, unassigned) [Example 22B]	5 nM
Nc1ncc(-c2cc(N3CCOC3=O)nc(N3CCOCC3)n2)c(C(F)(F)F)n1 [Example 11, 3-(2′-Amino-2-morpholin-4-yl-4′-trifluoromethyl-[4,5′]bipyrimidinyl-6-yl)-oxazolidin-2-one, reference compound]	138 nM
Nc1ncc(-c2cc(N3C(=O)OC[C@@H]3CCO)nc(N3CCOCC3)n2)c(C(F)(F)F)n1 [Example 9, (S)-3-(2′-Amino-2-morpholin-4-yl-4′-trifluoromethyl-[4,5′]bipyrimidinyl-6-yl)-4-(2-hydroxy-ethyl)-oxazolidin-2-one]	78 nM
C[C@H]1COC(=O)N1c1cc(-c2cnc(N)nc2C(F)(F)F)nc(N2CCOCC2)n1 [Example 1, (S)-3-(2′-Amino-2-morpholin-4-yl-4′-trifluoromethyl-[4,5′]bipyrimidinyl-6-yl)-4-methyl-oxazolidin-2-one]	27 nM
C[C@H]1CN(c2cc(-c3cnc(N)nc3C(F)(F)F)nc(N3CCOCC3)n2)C(=O)O1 [Example 16, (S)-3-(2′-Amino-2-morpholin-4-yl-4′-trifluoromethyl-[4,5′]bipyrimidinyl-6-yl)-5-methyl-oxazolidin-2-one]	87 nM
CC1(CO)COC(=O)N1c1cc(-c2cnc(N)nc2C(F)(F)F)nc(N2CCOCC2)n1 (racemic) [Example 3, 3-(2′-amino-2-morpholino-4′-(trifluoromethyl)-4,5′-bipyrimidin-6-yl)-4-(hydroxymethyl)-4-methyloxazolidin-2-one]	73 nM
Nc1ncc(-c2cc(N3C(=O)O[C@@H]4[C@@H](O)CC[C@@H]43)nc(N3CCOCC3)n2)c(C(F)(F)F)n1 (racemic) [Example 22, (3aR*,6R*,6aR*)-3-(2′-Amino-2-morpholino-4′-(trifluoromethyl)-[4,5′-bipyrimidin]-6-yl)-6-hydroxyhexahydro-2H-cyclopenta[d]oxazol-2-one]	27 nM
C[C@H]1OC(=O)N(c2cc(-c3cnc(N)nc3C(F)(F)F)nc(N3CCOCC3)n2)[C@H]1COC=O [Example 12, Formic acid (4S,5R)-3-(2′-amino-2-morpholin-4-yl-4′-trifluoromethyl-[4,5′]bipyrimidinyl-6-yl)-5-methyl-2-oxo-oxazolidin-4-ylmethyl ester]	92 nM
Nc1ncc(-c2cc(N3C[C@H](CO)OC3=O)nc(N3CCOCC3)n2)c(C(F)(F)F)n1 [Example 20, (R)-3-(2′-Amino-2-morpholin-4-yl-4′-trifluoromethyl-[4,5′]bipyrimidinyl-6-yl)-5-hydroxymethyl-oxazolidin-2-one]	111 nM
C[C@H]1[C@@H](CO)OC(=O)N1c1cc(-c2cnc(N)nc2C(F)(F)F)nc(N2CCOCC2)n1 [Example 19, (4S,5S)-3-(2′-Amino-2-morpholin-4-yl-4′-trifluoromethyl-[4,5′]bipyrimidinyl-6-yl)-5-hydroxymethyl-4-methyl-oxazolidin-2-one]	34 nM
